Laboratory results as given in US9549926B2, “Compositions and methods of treating pulmonary hypertension” (Gilead Sciences, Inc., priority 2010, dated 2017).
Where two headings read alike, the source gives them in different places.

Legend:
[1] = test system: ET-1-induced contraction of rat intact intrapulmonary arterial rings; test: Ex-vivo vascular function assay: relaxation of ET-1-contracted intact rat intrapulmonary arterial rings; type: cell-based; settings: 8 nM ET-1, 10 nM ambrisentan, 30 nM tadalafil, alone or in combination, mean±SEM
Method: The selective type-A endothelin receptor antagonist, ambrisentan ([…]®), and the phosphodiesterase type 5 inhibitor, tadalafil ([…]®), are currently used to treat pulmonary arterial hypertension. Isolated rat intact intrapulmonary arterial rings contracted with 8 nM endothelin-1 (ET-1) were relaxed by 10 nM ambrisentan (from Gilead Sciences, Inc.) and 30 nM tadalafil (from Sequoia Research Products Ltd. Pangbourne, UK) by 30±13% (mean±SEM, n=3) and 12±5% (n=3), respectively, whereas both drugs in combination relaxed the intact intrapulmonary arterial rings by […] (FIG. 1, n=3, P<0.01 vs. mono-administration of ambrisentan or tadalafil). Intrapulmonary arteries (200-500 μm) and aortas were isolated from Sprague Dawley rats (300-320 g) and cut into 1-2 mm rings. Rings were mounted in a myograph and constricted with a submaximal concentration (8 nM) of ET-1. Ambrisentan, Bosentan, Macitentan and Tadalafil alone and in combination were evaluated in ET-constricted rings. Isolated rat intact intrapulmonary arterial rings contracted with 8 nM endothelin-1 (ET-1) were relaxed by 10 nM ambrisentan and 30 nM tadalafil by 29±1% (mean±SEM, n=4) and 22±2% (n=4), respectively, whereas both drugs in combination relaxed the intact intrapulmonary arterial rings by 85±3% (FIG. 2, n=4, P<0.01 vs. mono-administration of ambrisentan or tadalafil).

[2] = test system: ET-1-induced contraction of rat intact thoracic aortic rings; test: Ex-vivo vascular function assay: relaxation of ET-1-contracted intact rat thoracic aortic rings; type: cell-based; settings: for relaxation of intact thoracic aortic rings in the presence of ET-1: Example 1, FIG. 1, 8 nM ET-1, 10 nM ambrisentan, 30 nM tadalafil, alone or in combination, n=3; for IC50: Rattus norvegicus, read-out: IC50 to relax ET-1 constricted aortic rings
Method: The combination of both 10 nM ambrisentan and 30 nM tadalafil relaxed the ET-1-induced contraction of the intact thoracic aortic rings by 81±7% (FIG. 1, n=3; P<0.01 vs. mono-administration of ambrisentan or tadalafil). […] Intrapulmonary arteries (200-500 μm) and aortas were isolated from Sprague Dawley rats (300-320 g) and cut into 1-2 mm rings. Rings were mounted in a myograph and constricted with a submaximal concentration (8 nM) of ET-1. Ambrisentan, Bosentan, Macitentan and Tadalafil alone and in combination were evaluated in ET-constricted rings.

[3] = test system: ET-1-induced contraction of endothelium-denuded aortic rings; test: ET-1-induced contraction of endothelium-denuded aortic rings; type: cell-based, rat; settings: 10 nM ambrisentan, n=4
Method: (§1) Intrapulmonary arteries (200-500 μm) and aortas were isolated from Sprague Dawley rats (300-320 g) and cut into 1-2 mm rings. Rings were mounted in a myograph and constricted with a submaximal concentration (8 nM) of ET-1. Ambrisentan, Bosentan, Macitentan and Tadalafil alone and in combination were evaluated in ET-constricted rings.

[4] = test system: ET-1-induced contraction of endothelium-denuded pulmonary arterial rings; test: ET-1-induced contraction of endothelium-denuded pulmonary arterial rings; type: cell-based, rat; settings: FIG. 5, 10 nM ambrisentan, 30 nM tadalafil, n=4
Method: as §1

[5] = test system: hypoxia-induced mean pulmonary arterial pressure (mPAP) in male SD rats; test: Hypoxia-induced pulmonary arterial hypertension (PAH) animal model; type: in vivo; settings: 3 wks hypoxia, rat
Method: Male SD Rats (225-250 g) were housed in chambers under normoxic (sea level) or hypoxic (10% oxygen) conditions for 3 weeks. Rats were dosed with vehicle (0.5% hydroxypropyl methylcellulose (HPMC), 0.2% Tween 80, and 0.9% benzyl alcohol in water), AMB or TAD (quaque die) beginning the day they were placed in chambers. Plasma was collected when animals were terminated. [table]

[6] = Free plasma concentration in the rat PAH study; type: in vivo; settings: Sprague-Dawley, read-out: free or unbounded plasma concentration
Method: Rats were dosed with vehicle (0.5% hydroxypropyl methylcellulose (HPMC), 0.2% Tween 80, and 0.9% benzyl alcohol in water), AMB or TAD (quaque die) beginning the day they were placed in chambers. Plasma was collected when animals were terminated.
The free or unbounded plasma concentration for 10 mpk AMB dosing was about 104 nM in both cases. The free or unbounded plasma concentrations of TAD was about 24 nM when administered separately, or about 26 nM when administered with AMB, whether 1 mpk or 10 mpk.

[7] = biological target: T1, ETA receptor (Homo sapiens, UniProt P25101); settings: read-out: affinity for the ETA receptor; cited from earlier work
T1 sequence (P25101 21-427): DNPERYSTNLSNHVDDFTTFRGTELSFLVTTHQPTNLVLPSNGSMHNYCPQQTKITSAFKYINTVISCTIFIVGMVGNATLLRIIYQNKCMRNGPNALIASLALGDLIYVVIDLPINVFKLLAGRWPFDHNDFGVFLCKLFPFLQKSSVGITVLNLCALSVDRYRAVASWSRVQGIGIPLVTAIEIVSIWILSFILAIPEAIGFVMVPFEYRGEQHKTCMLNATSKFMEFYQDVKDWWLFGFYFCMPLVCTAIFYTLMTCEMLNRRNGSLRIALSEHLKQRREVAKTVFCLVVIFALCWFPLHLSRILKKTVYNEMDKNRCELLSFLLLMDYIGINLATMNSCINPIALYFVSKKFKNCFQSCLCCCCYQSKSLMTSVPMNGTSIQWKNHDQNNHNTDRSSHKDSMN

[8] = Example 2, FIG. 2, 100 nM bosentan, 30 nM macitentan

SMILES	relaxation of intact intrapulmonary arterial rings contracted with ET-1 ([1]; Example 1, FIG. 1, n=3) [%]	relaxation of intact intrapulmonary arterial rings contracted with ET-1 [1, 8] [%]	relaxation of intact thoracic aortic rings in the presence of ET-1 [2] [%]	IC50 ([2]; in the presence of 10 nM ambrisentan) [nM]	IC50 ([2]; tadalafil alone) [nM]	reduction of contraction induced by ET-1 [3]	reduction of contraction induced by ET-1 [4]	inhibition of PAP (mPAP±SEM) ([5]; 10 mpk TAD once daily) [%]	concentration at 3 weeks ([6]; 10 mpk, TAD (10 mpk), administered separately) [µM]	concentration at 3 weeks ([6]; TAD (10 mpk), administered with AMB, 1 mpk or 10 mpk) [µM]	inhibition of PAP (mPAP±SEM) ([5]; 1 mpk AMB once daily) [%]	inhibition of PAP (mPAP±SEM) ([5]; 10 mpk AMB once daily) [%]	concentration at 3 weeks ([6]; 1 mpk, AMB 1 mpk, administered separately) [µM]	concentration at 3 weeks ([6]; AMB 1 mpk, administered along with TAD) [µM]	concentration at 3 weeks ([6]; AMB 10 mpk, separately or with TAD (both cases)) [µM]	Ki [7] [nM]
CN1CC(=O)N2[C@H](c3ccc4c(c3)OCO4)c3[nH]c4ccccc4c3C[C@@H]2C1=O [tadalafil, (6R-trans)-6-(1,3-benzodioxol-5-yl)-2,3,6,7,12,12a-hexahydro-2-methyl-pyrazino [1′, 2′:1,6] pyrido[3,4-b]indole-1,4-dione]	12±5	22±2	16±4	16	79	failed to inhibit contraction	failed to inhibit contraction	23.2±1.3	~0.024	~0.026	–	–	–	–	–	–
CCCNS(=O)(=O)Nc1ncnc(OCCOc2ncc(Br)cn2)c1-c1ccc(Br)cc1 [macitentan]	–	31±2	–	–	–	–	–	–	–	–	–	–	–	–	–	–
COC(c1ccccc1)(c1ccccc1)[C@H](Oc1nc(C)cc(C)n1)C(=O)O [ambrisentan, (2S)-2-[(4,6-dimethylpyrimidin-2-yl)oxy]-3-methoxy-3,3-diphenylpropanoic acid]	30±13	29±1	32±3	–	–	26±7%	23±4%	–	–	–	28.4±1.1	42.1±2.4	~0.017	~0.013	~0.104	~0.012
COc1ccccc1Oc1c(NS(=O)(=O)c2ccc(C(C)(C)C)cc2)nc(-c2ncccn2)nc1OCCO [bosentan]	–	25±1	–	–	–	–	–	–	–	–	–	–	–	–	–	–
